In PMC12288460, “The Agrobacterium fabrum efflux pump PecM is produced in response to the plant exudate 4-hydroxybenzaldehyde to avoid disruption of central metabolism” (Journal of Bacteriology, 2025):

Target: T1, PecS (Agrobacterium fabrum, UniProt Q7D1T4)
T1 construct: full length, N-terminal His6-tag kept (pET100), E. coli BL21(DE3)pLysS; 18,923 Da tagged; dimer by known biology of MarR family
Assay: DNase I footprinting of pecS-pecM DNA, loss of PecS protection
Settings: 86 nM PecS, 250 mM Tris pH 8.0, 100 mM NaCl, room temperature, relief of DNA binding

T1 sequence (Q7D1T4 entry or part of it): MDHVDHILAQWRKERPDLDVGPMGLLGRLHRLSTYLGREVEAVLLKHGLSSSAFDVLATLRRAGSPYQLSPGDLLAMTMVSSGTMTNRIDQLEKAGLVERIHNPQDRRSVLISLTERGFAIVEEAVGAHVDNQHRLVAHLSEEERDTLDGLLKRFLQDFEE

For `O=c1[nH]c(=O)c2[nH]cnc2[nH]1` [xanthine], the “DNase I footprinting of pecS-pecM DNA, loss of PecS protection” value (10 mM xanthine (dissolved in 0.4 M NaOH)) was “This result indicates a direct interaction between these purines and PecS”.
In the case of `O=c1[nH]c(=O)c2[nH]c(=O)[nH]c2[nH]1` [urate], the “DNase I footprinting of pecS-pecM DNA, loss of PecS protection” value (2.5 mM urate (dissolved in 0.4 M NaOH)) is reported as “This result indicates a direct interaction between these purines and PecS”.
